Values quoted from earlier work as cited in patent publication US20130035389A1, “METHODS FOR TREATING MYELODYSPLASTIC SYNDROME WITH EZATIOSTAT” (Telik, Inc., priority 2011, published 2013).

Legend:
GST P1-1 = GST P1-1 (Homo sapiens, UniProt P09211); settings: leads to de-repression of jun kinase and activation of c-Jun
[1] = system: hematopoietic progenitor cells; settings: in vitro
leukemia cells = settings: in vitro
myelodysplastic syndrome = settings: low risk and intermediate-1 risk MDS patients, oral, phase II study

Sequence of GST P1-1 (P09211 2-210 limits assumed): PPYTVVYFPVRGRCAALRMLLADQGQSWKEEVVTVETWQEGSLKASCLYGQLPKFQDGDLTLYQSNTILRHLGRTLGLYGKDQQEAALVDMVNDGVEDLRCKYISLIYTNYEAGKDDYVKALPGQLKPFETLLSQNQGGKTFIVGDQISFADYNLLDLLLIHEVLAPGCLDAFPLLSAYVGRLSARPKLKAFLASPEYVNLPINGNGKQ

| inhibition of GST P1-1 (GST P1-1) | SMILES | effect on growth and differentiation of hematopoietic progenitor cells [1] | apoptosis in leukemia cells (leukemia cells) | clinical response (myelodysplastic syndrome) |
| --- | --- | --- | --- | --- |
| inhibits GST P1-1 | CCOC(=O)[C@@H](N)CCC(=O)N[C@@H](CSCc1ccccc1)C(=O)N[C@@H](C(=O)OCC)c1ccccc1 [Ezatiostat, ethyl (2S)-2-amino-5-[[(2R)-3-benzylsulfanyl-1-[[(1R)-2-ethoxy-2-oxo-1-phenylethyl]amino]-1-oxopropan-2-yl]amino]-5-oxopentanoate] | stimulate growth and differentiation of hematopoietic progenitor cells | induce apoptosis in leukemia cells |  |
|  | CCOC(=O)[C@@H](N)CCC(=O)N[C@@H](CSCc1ccccc1)C(=O)N[C@@H](C(=O)OCC)c1ccccc1.Cl [ezatiostat hydrochloride] |  |  | multilineage responses |
